According to patent US20090286713A9, “Collagen Receptor I-Domain Binding Modulators” (Biotie Therapies Corporation, priority 2005, published 2009):

Columns and labels:
[1] = molecular target: T1, α2 I-domain (Homo sapiens, UniProt P17301); experiment: Solid-phase binding assay, α2 I-domain binding to type I collagen
T1 construct: corresponded to amino acids 124-339 of the whole α2 integrin; made in house; host or cells: E. coli BL21 (pGEX-2T)
T1 sequence (P17301 153-368): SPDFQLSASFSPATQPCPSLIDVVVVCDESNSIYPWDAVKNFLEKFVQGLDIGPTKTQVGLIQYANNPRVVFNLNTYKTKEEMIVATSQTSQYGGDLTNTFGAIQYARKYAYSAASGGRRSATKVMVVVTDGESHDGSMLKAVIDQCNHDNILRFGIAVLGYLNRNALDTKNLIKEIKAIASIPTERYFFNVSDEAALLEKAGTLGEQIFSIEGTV
Experimental: (§1) Solid-phase binding assay for α1-domains—The coating of a 96-well high binding microtiter plate (Nune) was done by exposure to 0.1 ml of PBS containing 5 μg/cm2 (15 μg/ml) collagens or 20 μg/ml triple-helical peptides overnight at +4° C. Blank wells were coated with 1:1 solution of 0.1 ml Delfia® Diluent II (Wallac) and PBS. Residual protein absorption sites on all wells were blocked with 1:1 solution of 0.1 ml Delfia® Diluent II (Wallac) and PBS. Recombinant proteins (αI-GST) were added to the coated wells at a desired concentration in Delfia® Assay Buffer and incubated for 1 h at room temperature. Europium-labelled anti-GST antibody (Wallac) was then added (typically 1:1000), and the mixture was incubated for 1 h at room temperature. All incubations mentioned above were done in the presence of 2 mM MgCl2. Delfia® enhancement solution (Wallac) was added to each well and the Europium signal was measured by time-resolved fluorometry (Victor2 multilabel counter, Wallac). At least three parallel wells were analyzed. In some cases some what modified solid-phase assay was used and it was performed according Tulla et al, 2001. It uses anti-GST and Europium-labelled protein G instead of Europium-labelled anti-GST antibody.
(§2) The tetracyclic Streptomyces compounds synthesised in Example 1, where screened for inhibition of collagen binding to α1 and α2 I-domains, using the α I-domain assay described in Example 4. […] L3015 could inhibit the binding of both α1I and α2 I-domains to type I and type IV collagen (FIG. 6B).
Based on the utilization of 3D model other compounds from the polyketide family were tested. The compounds were tested in the europium-labelled anti-GST assay described in Example 4. Tetracyclic polyketides L3007, L3008, and L3009 could inhibit α2 I-domain binding to type I collagen (FIG. 8A).

[2] = molecular target: T2, α11 I-domain (Homo sapiens, UniProt Q9UKX5); experiment: Solid-phase binding assay, α11 I-domain binding to type I collagen; conditions: at 0.05 mM concentration; FIG. 9
T2 construct: two extra residues before α11I, residues 159-354; made in house; host or cells: E. coli BL21
T2 sequence (Q9UKX5 159-354): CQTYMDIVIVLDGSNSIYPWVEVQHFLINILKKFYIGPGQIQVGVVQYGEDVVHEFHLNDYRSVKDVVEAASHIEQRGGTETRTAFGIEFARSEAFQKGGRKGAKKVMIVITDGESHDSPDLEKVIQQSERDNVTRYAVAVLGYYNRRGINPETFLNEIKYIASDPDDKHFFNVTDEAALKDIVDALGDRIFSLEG
Experimental: as §1
(§3) The inhibitory effect of L3009 was tested with all collagen binding integrin α I-domains, α1I, α2I, α10I and α11I as described in Example 4. […]

[3] = molecular target: T3, α10 I-domain (Homo sapiens, UniProt O75578); experiment: Solid-phase binding assay, α10 I-domain binding to type I collagen; conditions: at 0.05 mM concentration; FIG. 9
T3 construct: corresponding to amino acids 141-337 of the whole α10 integrin; made in house; host or cells: E. coli BL21 (pGEX-2T)
T3 sequence (O75578 163-359): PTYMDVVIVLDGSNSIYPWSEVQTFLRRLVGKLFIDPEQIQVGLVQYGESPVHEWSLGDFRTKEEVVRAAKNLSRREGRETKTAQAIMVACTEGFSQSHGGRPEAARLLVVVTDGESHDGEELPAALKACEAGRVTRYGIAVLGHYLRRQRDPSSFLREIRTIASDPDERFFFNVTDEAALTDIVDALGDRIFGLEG
Experimental: as §1, §3

[4] = molecular target: T4, α1 I-domain (Homo sapiens, UniProt P56199); experiment: Solid-phase binding assay, α1 I-domain binding to type I collagen; conditions: at 0.05 mM concentration; FIG. 9
T4 construct: corresponding to amino acids 123-338 of the whole α1 integrin; made in house; host or cells: E. coli BL21 (pGEX-4T-3)
T4 sequence (P56199 151-366): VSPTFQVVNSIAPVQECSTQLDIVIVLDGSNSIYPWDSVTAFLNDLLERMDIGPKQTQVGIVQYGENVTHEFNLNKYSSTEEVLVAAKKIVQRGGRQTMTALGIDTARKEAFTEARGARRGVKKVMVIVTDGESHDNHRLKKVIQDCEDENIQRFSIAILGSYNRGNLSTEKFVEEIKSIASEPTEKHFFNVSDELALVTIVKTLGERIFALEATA
Experimental: as §1, §2
Furthermore α1I and α2 I-domain binding to collagen I in the presence of lovastatin was tested in the europium-labelled anti-GST assay described in Example 4. Lovastatin is an allosteric inhibitor of leukocyte integrin α I-domains (e.g. αL I-domain), and the binding site of lovastatin represents an optional binding site for possible modulators. […] These biological tests gave further evidence that collagen receptor α I-domains are inhibited by direct blocking of the MIDAS surface by tetracyclic polyketide.

COC(=O)c1c(C(C)C)cc(O)c2c(O)c3c(c(O)c12)C(=O)c1cccc(O)c1C3=O [Compound L3009, methyl 4,5,7,12-tetrahydroxy-2-methylethyl)-6,11-dioxonaphthacenecarboxylate]
could inhibit: inhibition of α2 I-domain binding to type I collagen (in words) ([1]; FIG. 6B, 7A, 8A) | inhibition of collagen I binding of α2I ([1]; at 0.05 mM concentration, FIG. 9) | inhibition of collagen I binding of α11I [2] | inhibition of collagen I binding of α10I [3] | inhibition of collagen I binding of α1I [4]
